Experimental data: patent publication US7169568B2, “Method for screening molecules that exert a neurotrophic effect through activation of neurotrophin receptors” (New York University, priority 2000, dated 2007)
Where no end group is shown, it is not given here.

Tested on: TrkA receptors
Experiment: TrkA receptor phosphorylation in primary E18 basal forebrain neurons (immunoprecipitation, anti-phosphotyrosine Western blot)
Type: cell-based, rat
Conditions: 10 nM, 2 hours
Procedure: Primary cultures of E18 basal forebrain neurons were prepared as described in the Materials and Methods section of Example 2 and treated with PACAP38 (10 nM) or NGF (10 ng/ml) for various times. Activation of TrkA receptors was assessed by immunoprecipitation and Western blotting with anti-phosphotyrosine antibody.
Immunoprecipitated and Immunoblotting. PC12 (615) cells were maintained in DMEM containing 10% FBS supplemented with 100 units/ml penicillin, 100 μg/ml streptomycin, and 2 mM glutamine plus 200 μg/ml G418. Cells were placed in serum free medium overnight before experiments. Cell lysates from PC12(615) cells, or basal forebrain cells were incubated in lysis buffer (1% Nonidet P-40) for 4 hrs to overnight at 4° C. with anti-pan-Trk polyclonal antibody followed by incubation with protein A-Sepharose beads. Equivalent amounts of protein were analyzed for each condition. The beads were washed five times with lysis buffer, and the immune complexes were boiled in SDS-sample buffer and loaded on SDS-PAGE gels for immunoblot analysis. The immunoreactive protein bands were detected by enhanced chemiluminescence (Amersham Pharmacia).
Basal Forebrain Cell Cultures. […] Cells were counted and plated on culture wells coated with 0.01 mg/ml poly-D-lysine overnight. […]

Substance: PACAP27: 27 amino acid form of PACAP (HSDGIFTDSYSRYRKQMAVKKYLAAVL; ends and bridges not checked; UniProt P18509 132-158, looked up, fragment)
- Phosphorylation of TrkA receptors: gave rise to phosphorylated TrkA receptors
